Results taken from patent US11491117B2, “Compounds for the prevention and treatment of glucose intolerance related conditions and obesity” (SORBONNE UNIVERSITÉ, priority 2017, dated 2022).

What was measured:
[1] = tested on: C57BL/6J mice fed CHD or HFD; test: Histology and immunohistochemistry of liver and pancreas of chronically treated mice; format: in vivo, mouse; conditions: for islet size (immunohistochemistry) / insulin positive area: mean±SEM
Procedure: Tissues were drop-fixed in 4% paraformaldehyde (Sigma-Aldrich, Saint Quentin Fallavier, France) immediately after collection and put through an automated carousel processor for dehydration, clearing, and paraffin embedding (Leica, Nanterre, France). Sections were prepared for liver (6 μm), pancreas (6 μm) and adipose tissue ([…]) and mounted on slides (DPX polymerizing mountant, Sigma-Aldrich, Saint Quentin Fallavier, France). Hematoxylin and Eosin (H&E) was used to evaluate tissue morphology. Epitope-specific antibodies were used for immunohistochemistry detection of insulin on pancreas sections (Dako, Saint Aubin, France).
For Oil redO (ORO), livers were snap frozen in OCT (VWR, Fontenay-sous-Bois, France) and cut into 7-μm sections using a cryostat. Sections were rehydrated in PBS (Sigma-Aldrich, St Quentin, France) and incubated with an ORO staining solution (Sigma Aldrich, St Quentin, France). Slides were washed in deionized water and mounted with Vectashield mounting medium (Laboratoires Eurobio Abcys, LesUlis, France).
For immunohistochemistry analysis, pancreas sections were quenched with 3% H2O2, washed with TBS+0.1% (v/v) Tween-20 (or 0.05% v/v Triton X-100 for nuclear epitopes), blocked with TBS+3% (w/v) BSA and incubated with diluted primary antibodies and then with HRP-conjugated secondary antibody (Bio-Rad, Marnes-la-Coquette, France). Chromogenic detection was carried out with the DAB chromogen kit (Dako, Saint Aubin, France). Nuclei were counterstained with hematoxylin. Quantitative expression of all immunostainings was performed using positive pixels algorithm (Indica Labs, Corrales, N. Mex.). For double immunostaining and immunofluorescence analyses, pancreas sections were stained for insulin as described above and co-stained with i) primary Anti-Ki67 antibody (ab15580, Abcam, Paris, France) and secondary Donkey Anti-Goat IgG H&L conjugated to Alexa Fluor® 568 (ab175704, Abcam, Paris, France) ii) primary Mouse/Rat CD31/PECAM-1 Antibody (AF3628, Minneapolis, USA) and secondary Goat anti-Rabbit IgG H&L conjugated to Alexa Fluor 488 (A-11034, ThermoFisher, Villebon, France). Results are expressed as percentage of positive pixels, within islets where indicated. The quantification method is an automated observer-independent process based on section scanning and application of publicly available algorithms. Each biological replicate represents one slide per animal mounted with at least 3 tissue sections, representing 3 technical replicates, the mean and variance of which is presented as the result per biological replicate. All images were acquired on an Axiovert 200M microscope (Zeiss, Marly-le-Roi, France).

Goto-Kakizaki (GK) rats = test: Pancreas histology and immunohistochemistry of chronically treated GK rats; format: in vivo, rat
Procedure: Pancreas sections were labeled either with Hematoxylin-Eosin and Immunohistochemistry to determine insulin positive area (FIG. 9F) and treated with Ki 67 and DAPI to stain and quantify proliferative nuclei (FIG. 9G). […] All measures are from 6 rats per group. Data were analyzed using the unpaired Mann-Whitney test. […] Tissues were drop-fixed in 4% paraformaldehyde (Sigma-Aldrich, Saint Quentin Fallavier, France) immediately after collection and put through an automated carousel processor for dehydration, clearing, and paraffin embedding (Leica, Nanterre, France). Sections were prepared for liver (6 μm), pancreas (6 μm) and adipose tissue ([…]) and mounted on slides (DPX polymerizing mountant, Sigma-Aldrich, Saint Quentin Fallavier, France). Hematoxylin and Eosin (H&E) was used to evaluate tissue morphology. Epitope-specific antibodies were used for immunohistochemistry detection of insulin on pancreas sections (Dako, Saint Aubin, France). […] Quantitative expression of all immunostainings was performed using positive pixels algorithm (Indica Labs, Corrales, N. Mex.). […] Results are expressed as percentage of positive pixels, within islets where indicated. The quantification method is an automated observer-independent process based on section scanning and application of publicly available algorithms. […]

pancreas gene expression = test: Quantitative RT-PCR and NAD/NADH in total pancreas of chronically treated mice; format: in vivo, mouse
Procedure: Blood glucose was measured using an Accu-Check® Performa (Roche Diagnostics, Meylan, France) and plasma insulin was determined using Insulin ELISA kits (Mercodia, Uppsala, Sweden). For determination of liver triglycerides, liver samples (100 mg) were homogenized and incubated in NonidetP-40 (5%) and supernatants containing triglycerides were collected. Triglycerides concentration was quantified in the supernatant fraction using a colorimetric assay (ab65336, Abcam, Paris, France) by measuring OD at 570 nm. The ratio NAD/NADH was determined using a quantification kit (MAK037; […] Samples were homogenized in the extraction buffer and clarified by centrifugation. Supernatant was deproteinized by filtration through a 10-kDa cutoff spin filter (Millipore SAS, Molsheim, France). The assay was then performed according to the manufacturer's instructions. RNA was extracted from pancreas, adipose tissue and liver using the RNeasy RNA Mini Kit (Qiagen, Courtaboeuf, France). Reverse transcription was performed from a 20 μL reaction mixture with 500 ng RNA using M-MLV reverse transcriptase kit (ThermoFisher, Villebon, France). Quantitative RT-PCR was performed using sequence specific primers and the MESA green kit for SYBR green assays (Eurogentec, Angers, France). We used 18S and/or cyclophilin house keeping genes to normalize relative quantification of mRNA levels using the Livak and […] methods ([…], 2001).

[2] = CHD-fed mice, not statistically significant

Cc1ccc(O)cc1 [4-cresol]
islet size (immunohistochemistry) ([1]; CHD fed mice): 153.60±14.18 | number of proliferative nuclei (KI67) in pancreas ([1]; CHD-fed mice): significantly increased | reduction in liver fat content (Oil-Red-O staining) ([1]; HFD fed mice, P=0.009, to the level of saline-treated CHD-fed controls): 40.7% | islet size (immunohistochemistry) ([1]; HFD fed mice): 170.00±12.56 | number of proliferative nuclei (KI67) in pancreas ([1]; HFD-fed mice): remained elevated | CD31 positive cells (pancreas vascularization) ([1]; both groups fed CHD or HFD): further significant increase | liver fat content (Oil-Red-O staining) ([1]; mice fed CHD): reduced | islet density ([1]; mice fed CHD or HFD, significant only in CHD-fed mice): strong increase | insulin positive area ([1]; mice fed CHD, statistically significant): 185.40±22.95 | insulin positive area ([1]; mice fed HFD, not statistically significant): 171.90±21.62 | cell proliferation (Ki 67 labeling) in pancreas (Goto-Kakizaki (GK) rats): increased cell proliferation | insulin positive area (Goto-Kakizaki (GK) rats): significant increase | expression of Ins1 and Hnf1α in pancreas (pancreas gene expression; [2]): Enhanced expression | expression of Ucp2 in pancreas (pancreas gene expression; [2]): reduced expression | transcription of genes encoding amylase, Vegf, Bdnf, IL10 and Sirt1 in pancreas (pancreas gene expression; CHD-fed mice, vs saline-treated CHD-fed mice): increased transcription | IL10 transcript level in pancreas (pancreas gene expression; HFD-fed mice): remained elevated | expression of Bdnf, Hnf1α, Pdx1 and Vegf in pancreas (pancreas gene expression; HFD-fed mice, differences not statistically significant): strongly overexpressed | pancreatic expression of ERα (pancreas gene expression; fat fed mice in vivo): does not regulate significantly | expression of Ucp2, IL6 and Tnf in pancreas (pancreas gene expression; mice fed HFD, vs HFD saline): significantly reduced expression | expression of genes encoding Sirt1 and Ins1 in pancreas (pancreas gene expression; mice fed HFD, vs HFD saline): significant overexpression | DYRK1A pancreatic transcription (pancreas gene expression; mice fed control or HFD, chronic treatment): significant downregulation
